Results as given in publication PMC11724075, “Small-molecule-induced ERBB4 activation to treat heart failure” (Nature Communications, 2025).
“And” between values parts separate entries of the source, which are not always exact repeats. Identical values can stand only once.

Key:
ERBB4 receptor = biological target: T1, ERBB4 receptor (Homo sapiens, UniProt Q15303); assay: Fluorescence-based competition binding assay with F-NRG1 (flow cytometry) on U2OS ERBB4/ERBB4 cells; conditions: for Fluorescence-based competition assay with NRG1 and EF-1 (normalized signal): individual replicates
T1 construct: host or cells: U2OS (osteosarcoma cells), PathHunter engineered line
T1 sequence (Q15303 26-1308): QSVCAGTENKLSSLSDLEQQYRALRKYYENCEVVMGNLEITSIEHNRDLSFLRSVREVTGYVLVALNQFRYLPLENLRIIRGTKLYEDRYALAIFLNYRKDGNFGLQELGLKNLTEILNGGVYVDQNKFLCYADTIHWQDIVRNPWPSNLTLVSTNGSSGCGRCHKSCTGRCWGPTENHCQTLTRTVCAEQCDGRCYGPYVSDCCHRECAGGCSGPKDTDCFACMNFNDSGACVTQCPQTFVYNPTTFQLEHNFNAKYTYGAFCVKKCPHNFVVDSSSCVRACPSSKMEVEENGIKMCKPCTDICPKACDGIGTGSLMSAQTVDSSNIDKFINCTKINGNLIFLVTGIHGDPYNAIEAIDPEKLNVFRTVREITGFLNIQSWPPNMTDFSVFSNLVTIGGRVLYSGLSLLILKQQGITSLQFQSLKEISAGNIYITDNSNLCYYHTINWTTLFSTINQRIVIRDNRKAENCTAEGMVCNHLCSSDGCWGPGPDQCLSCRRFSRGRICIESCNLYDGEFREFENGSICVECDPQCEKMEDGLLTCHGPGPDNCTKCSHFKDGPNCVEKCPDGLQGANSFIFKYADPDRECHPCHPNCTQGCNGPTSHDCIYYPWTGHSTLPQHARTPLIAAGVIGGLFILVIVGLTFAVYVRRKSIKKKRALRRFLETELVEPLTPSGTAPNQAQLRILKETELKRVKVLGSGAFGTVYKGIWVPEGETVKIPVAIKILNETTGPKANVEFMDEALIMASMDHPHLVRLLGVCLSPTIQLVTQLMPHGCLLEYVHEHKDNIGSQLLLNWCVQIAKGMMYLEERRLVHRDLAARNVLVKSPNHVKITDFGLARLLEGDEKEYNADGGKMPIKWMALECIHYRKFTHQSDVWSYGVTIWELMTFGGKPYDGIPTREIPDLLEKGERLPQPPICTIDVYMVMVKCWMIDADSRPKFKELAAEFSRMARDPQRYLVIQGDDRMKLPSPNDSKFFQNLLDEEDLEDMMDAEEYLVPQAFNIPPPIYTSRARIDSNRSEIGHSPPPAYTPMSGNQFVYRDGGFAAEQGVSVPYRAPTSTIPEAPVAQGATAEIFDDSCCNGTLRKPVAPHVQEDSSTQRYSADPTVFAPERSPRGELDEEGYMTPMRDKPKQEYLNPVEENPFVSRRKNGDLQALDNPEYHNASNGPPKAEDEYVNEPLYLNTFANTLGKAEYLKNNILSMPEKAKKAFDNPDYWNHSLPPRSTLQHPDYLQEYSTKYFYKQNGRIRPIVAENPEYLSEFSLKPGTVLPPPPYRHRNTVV
T1 sequence (Q15303 26-1308): as above
Description: NRG1 was dissolved in PBS at a concentration of 1 mg/mL and labeled with Alexa Fluor 488 using the Alexa Fluor 488 microscale protein labeling kit (Thermo Fisher Scientific, A30006). A Bio-gel P-4 (Bio-Rad, 1504124) fine resin suspended in PBS and a dye:protein molar ratio of 5 was used to purify the labeled NRG1 according to the manufacturer’s instructions. Fluorescent labeling was evaluated by performing a dose-response experiment using F-NRG1 (1–1000 nM) on the U2OS ERBB4/ERBB4 dimerization cell line. Next, the same cell line was used to perform a competition binding assay with F-NRG1 using flow cytometry. Cells were plated in transparent U-bottom 96-well plates (Greiner Bio-One, M9436) at 5 × 10^5 cells/mL in 50 μL ice-cold buffer (PBS with 0.1% bovine serum albumin (BSA; Sigma-Aldrich, A7906) and 0.05% sodium azide (Sigma-Aldrich, S2002)). Next, cells were centrifuged at 17,968 × g for 4 min at RT and the supernatants were discarded. The cell pellets were washed with 50 μL ice-cold buffer by gently pipetting up and down. Centrifugation and washing were repeated, and the supernatants were discarded. For the competition assay between NRG1 and F-NRG1, cells were treated with NRG1 (1–100 nM) and F-NRG1 (30 nM). […] After gentle mixing of each sample, the plate was incubated for 1 h at 4 °C on a microplate shaker. Next, the plate was centrifuged at 17,968 × g for 4 min at RT and the supernatants were discarded. The cells were then washed with 100 μL ice-cold buffer, pelleted by centrifugation and washed again. The supernatants were discarded and 100 μL ice-cold buffer was added to the cell pellets and pipetted up and down to generate single-cell suspensions. These suspensions were transferred to 5-mL polystyrene round-bottom tubes, kept on ice, and exposed to minimum light until flow cytometric analysis (BD Accuri C6, BD Biosciences). Unstained cells were used to set the parameters of the flow cytometer.
Supplementary Figure 3. Receptor binding assay. (a) Fluorescence-based competition assay between […]
The Y-axis represents the […]
percentage of specific binding of F-NRG1, the x-axis represents the molar concentration of unlabeled […]
(§1) (b) DRC showing t he effect of NRG1 (full line with full circle) on the […]
(§2) 1x10-6 M NRG1; n=5 biological replicates for NRG1 + EF -1 10 µM for all concentrations of NRG1, except […]
(§3) concentrations of NRG1, except n=2 for 3x10-7 M and 1x10-6 M NRG1). All data are presented as mean ± SD. Source data are provided as a Source Data file . CPD, compound; DRC; dose response curve; FC, fold change; F-NRG1, fluorescent ly labeled NRG1; M, molar concentration; NRG1, neuregulin-1; Veh, […]

ERBB4/ERBB4 = biological target: T2, ERBB4/ERBB4 (Homo sapiens, UniProt Q15303); assay: NRG1 dose-response in ERBB4/ERBB4 dimerization assay with co-administration of EF-1; type: cell-based; conditions: no EF-1
T2 construct: host or cells: U2OS (osteosarcoma cells), PathHunter engineered line
T2 sequence (Q15303 26-1308): as above
T2 sequence (Q15303 26-1308): as above
Description: U2OS ERBB4/ERBB4 dimerization cells were seeded at a density of 5 × 10^4 cells/well in 100 µL Cell Plating 0 Reagent, in white 96-well plates (PerkinElmer, 6005680) and incubated for 24 h at 37 °C, 5% CO2. […] Next, 110 µL PathHunter Flash Detection Reagent was added to each well and incubated at RT for 1 h after which the luminescence signal was measured using the Luminoskan Ascent (Thermo Fisher Scientific). Dose-response curves of the compounds were performed in 2-fold (0.0625–32 µM). The same experimental set-up was used for the U2OS ERBB2/ERBB4, U2OS ERBB2/ERBB3 and U2OS ERBB1/ERBB1 dimerization cell lines. […]
as §1, §2, §3

[1] = system: Akt phosphorylation (pAkt/Akt); assay: Western blot pAkt/Akt in iAMs; type: cell-based, rat; conditions: for pAkt/Akt, relative to vehicle of the same time point: NRG1 10 nM, iAMs, single replicates
Description: (§4) Hearts of the aforementioned transgenic mice were removed immediately after the animals had been killed. Cells and heart tissue were collected in RIPA lysis buffer (Thermo Fisher Scientific, 89900) supplemented with protease inhibitors (Merck, 11836153001) and phosphatase inhibitors (Merck, 4906845001) and the lysates were centrifuged at 14,000 × g for 10 min. The supernatants were collected, supplemented with sample buffer, and incubated at 95 °C for 5 min. Protein quantification was done with Pierce^TM BCA Protein Assay Kits (Thermo Fisher, 23227) according to the manufacturer’s instructions. Equal protein amounts of clarified lysates (20 µg) were subsequently separated by sodium dodecyl sulfate (SDS) polyacrylamide gel electrophoresis (165 V, 400 mA, 60 min) and transferred onto polyvinylidene fluoride membranes by electroblotting (100 V, 400 mA, 90 min). Next, the membranes were incubated for 1 h with Li-Cor blocking buffer (Li-Cor, 927-60001) at RT in Tris-buffered saline (TBS), supplemented with 0.1% Tween (BIO-RAD, 1706531). Next, primary antibodies were added (see below and Table 1a) in Li-Cor blocking buffer supplemented with 0.1% Tween, and the membranes were incubated overnight at 4 °C on a shaker. Following washing with TBS-0.1% Tween, the membranes were incubated for 1 h at RT with corresponding IRDye-conjugated secondary antibodies (See below and Table 1b) in Li-Cor blocking buffer supplemented with […] and 0.1% Tween. The membrane was visualized with the Odessey imaging system.

[2] = system: ERK1/2 phosphorylation (pERK1/2/ERK1/2); assay: Western blot pERK1/2/ERK1/2 in iAMs; type: cell-based, rat; conditions: for pErk/Erk, relative to vehicle of the same time point: NRG1 10 nM, iAMs, single replicates
Description: as §4

neuregulin-1 [NRG1]
IC50 (ERBB4 receptor; 30 nM F-NRG1, U2OS ERBB4/ERBB4 cells, read-out: IC50, reduction of binding of fluorescent NRG1 (F-NRG1) to the ERBB4 receptor): 32 nM | Fluorescence-based competition assay with NRG1 and EF-1 (normalized signal) (ERBB4 receptor; concentration 100 pM): 100 | Fluorescence-based competition assay with NRG1 and EF-1 (normalized signal) (ERBB4 receptor; concentration 1e-9 M): 68.5222 and 84.1596 and 93.8458 and 74.5974 and 128.088 and 100 | Fluorescence-based competition assay with NRG1 and EF-1 (normalized signal) (ERBB4 receptor; concentration 3e-9 M): 80.2455 and 83.5978 and 102.302 and 89.9396 and 83.9805 and 87.652 | Fluorescence-based competition assay with NRG1 and EF-1 (normalized signal) (ERBB4 receptor; concentration 1e-8 M): 67.9682 and 69.1706 and 85.6667 and 81.6967 | Fluorescence-based competition assay with NRG1 and EF-1 (normalized signal) (ERBB4 receptor; concentration 3e-8 M): 77.0259 and 43.4293 and 100.206 and 81.3756 and 87.2588 and 82.6252 and 67.1018 and 62.6829 and 44.3344 and 108.803 | Fluorescence-based competition assay with NRG1 and EF-1 (normalized signal) (ERBB4 receptor; concentration 5e-8 M): 65.1587 and 61.7658 and 51.2875 and 66.8315 | Fluorescence-based competition assay with NRG1 and EF-1 (normalized signal) (ERBB4 receptor; concentration 7.5e-8 M): 7.1162 and 78.7156 and 54.3916 and 66.0513 and 10.1361 and 60.285 and -8.7833 and 64.1512 | Fluorescence-based competition assay with NRG1 and EF-1 (normalized signal) (ERBB4 receptor; concentration 9e-8 M): 47.1877 and 5.376 and 43.6793 | Fluorescence-based competition assay with NRG1 and EF-1 (normalized signal) (ERBB4 receptor; concentration 1e-7 M): 0 | Chemiluminescence-based competition assay with NRG1 and EF-1, signal (ERBB4/ERBB4; NRG1 1e-11 M): 0 | Chemiluminescence-based competition assay with NRG1 and EF-1, signal (ERBB4/ERBB4; NRG1 1e-7 M): 101.055 and 98.9454 and 97.307 and 102.693 and 100 and 86.6131 and 109.42 | Chemiluminescence-based competition assay with NRG1 and EF-1, signal (ERBB4/ERBB4; NRG1 3e-7 M): 95.7195 and 99.6882 and 104.291 and 93.5081 and 90.5392 and 120.599 and 107.787 | Chemiluminescence-based competition assay with NRG1 and EF-1, signal (ERBB4/ERBB4; NRG1 1e-6 M): 99.5216 and 99.741 and 109.693 and 98.1524 | phosphorylation of Akt in iAMs (in words) ([1]; NRG1 10 nM or EF-1 32 µM): significant increase in phosphorylated Akt levels after already 15 minutes | pAkt/Akt, relative to vehicle of the same time point ([1]; 0 minutes): 1.052 and 0.8332 and 0.8199 | pAkt/Akt, relative to vehicle of the same time point ([1]; 15 minutes): 5.096 and 6.809 and 6.931 | pAkt/Akt, relative to vehicle of the same time point ([1]; 60 minutes): 4.363 and 4.094 and 3.405 | pAkt/Akt, relative to vehicle of the same time point ([1]; 120 minutes): 2.7652 and 3.7648 and 2.637 | pAkt/Akt, relative to vehicle of the same time point ([1]; 240 minutes): 2.317 and 2.06 | phosphorylation of ERK1/2 in iAMs (in words) ([2]; NRG1 10 nM or EF-1 32 µM): time-dependent phosphorylation of ERK1/2 | pErk/Erk, relative to vehicle of the same time point ([2]; 0 minutes): 0.7394 and 1.087 and 0.6444 | pErk/Erk, relative to vehicle of the same time point ([2]; 15 minutes): 2.343 and 1.9112 and 1.767 | pErk/Erk, relative to vehicle of the same time point ([2]; 60 minutes): 3.329 and 2.139 and 1.769 | pErk/Erk, relative to vehicle of the same time point ([2]; 120 minutes): 1.461 and 2.784 and 4.448 | pErk/Erk, relative to vehicle of the same time point ([2]; 240 minutes): 3.3773 and 3.181
